Assay results: patent publication US20250195521A1 (Revolution Medicines, Inc., priority 2020, published 2025)
Like-named read-outs stand apart in the source and are kept apart here.

Legend:
[1] = target: NRAS G12C (Homo sapiens (Human), UniProt P01111+P62937, G12C); assay: Ras-Raf disruption/FRET/MOA assay (BRAF RBD, Cyclophilin A); assay type: biochemical; conditions: read-out: NRAS G12C FRET data IC50
Procedure: (§1) Compound is present in plate wells as a 10-point 3-fold dilution series starting at a final concentration of 30 μM. After incubation at 25° C. for 3 hours, a mixture of Anti-His Eu—W1024 and anti-GST allophycocyanin is then added to assay sample wells at final concentrations of 10 nM and 50 nM, respectively, and the reaction incubated for an additional 1.5 hours. […] Compounds that facilitate disruption of a Ras: RAF complex are identified as those eliciting a decrease in the TR-FRET ratio relative to DMSO control wells.
(§2) Disruption of B-Raf Ras-Binding Domain (BRAF^RBD) Interaction with K-Ras by Compounds of the Invention (Also Called a FRET Assay or an MOA Assay)
(§3) Note—The following protocol describes a procedure for monitoring disruption of K-Ras G12C (GMP-PNP) binding to BRAF^RBD by a compound of the invention. This protocol may also be executed substituting other Ras proteins or nucleotides.
(§4) The purpose of this biochemical assay was to measure the ability of test compounds to facilitate ternary complex formation between a nucleotide-loaded K-Ras isoform and Cyclophilin A; the resulting ternary complex disrupts binding to a BRAF^RBD construct, inhibiting K-Ras signaling through a RAF effector. Data is reported as IC50 values.
(§5) In assay buffer containing 25 mM HEPES pH 7.3, 0.002% Tween20, 0.1% BSA, 100 mM NaCl and 5 mM MgCl2, tagless Cyclophilin A, His6-K-Ras-GMPPNP, and GST-BRAF^RBD were combined in a 384-well assay plate at final concentrations of 25 μM, 12.5 nM and 50 nM, respectively. Compound was present in plate wells as a 10-point 3-fold dilution series starting at a final concentration of 30 μM. After incubation at 25° C. for 3 hours, a mixture of Anti-His Eu—W1024 and anti-GST allophycocyanin was then added to assay sample wells at final concentrations of 10 nM and 50 nM, respectively, and the reaction incubated for an additional 1.5 hours. […] Compounds that facilitate disruption of a K-Ras: RAF complex were identified as those eliciting a decrease in the TR-FRET ratio relative to DMSO control wells.

[2] = target: KRAS WT (Homo sapiens (Human), UniProt P01116+P62937); assay: as above; assay type: biochemical; conditions: read-out: KRAS WT FRET data IC50
KRAS WT, sequence (P01116 other isoform, or with tags, fused parts or gaps): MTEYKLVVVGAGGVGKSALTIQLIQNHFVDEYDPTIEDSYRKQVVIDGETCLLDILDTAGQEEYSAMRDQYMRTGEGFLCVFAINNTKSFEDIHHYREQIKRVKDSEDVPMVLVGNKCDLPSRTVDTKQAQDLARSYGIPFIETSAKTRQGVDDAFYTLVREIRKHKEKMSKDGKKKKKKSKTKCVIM
KRAS WT, sequence (P62937 whole entry): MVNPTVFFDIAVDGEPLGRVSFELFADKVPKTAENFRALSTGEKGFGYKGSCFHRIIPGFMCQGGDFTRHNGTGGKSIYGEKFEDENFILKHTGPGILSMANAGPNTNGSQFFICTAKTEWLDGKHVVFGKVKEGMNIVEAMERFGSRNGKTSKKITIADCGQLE
Procedure: as §1, §2, §3, §4, §5

[3] = target: KRAS G13C (Homo sapiens (Human), UniProt P01116+P62937, G13C); assay: as above; assay type: biochemical; conditions: read-out: KRAS G13C FRET IC50
KRAS G13C, sequence (P01116 other isoform, or with tags, fused parts or gaps G13C): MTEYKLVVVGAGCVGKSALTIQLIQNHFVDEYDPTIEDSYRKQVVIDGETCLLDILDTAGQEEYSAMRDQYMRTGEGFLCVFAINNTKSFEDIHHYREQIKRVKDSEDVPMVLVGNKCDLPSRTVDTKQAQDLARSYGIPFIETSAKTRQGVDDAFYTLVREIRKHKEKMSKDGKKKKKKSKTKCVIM
KRAS G13C, sequence (P62937 whole entry): as the sequence (P62937 whole entry) above
Procedure: as §1, §2, §3, §4, §5

[4] = target: KRAS G12V (Homo sapiens (Human), UniProt P01116+P62937, G12V); assay: as above; assay type: biochemical; conditions: read-out: KRAS G12V FRET IC50
KRAS G12V, sequence (P01116 other isoform, or with tags, fused parts or gaps G12V): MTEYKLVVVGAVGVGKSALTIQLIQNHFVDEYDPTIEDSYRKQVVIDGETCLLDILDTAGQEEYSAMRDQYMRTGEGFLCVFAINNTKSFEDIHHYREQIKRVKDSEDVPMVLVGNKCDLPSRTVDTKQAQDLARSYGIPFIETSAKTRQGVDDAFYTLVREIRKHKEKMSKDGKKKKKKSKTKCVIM
KRAS G12V, sequence (P62937 whole entry): as the sequence (P62937 whole entry) above
Procedure: as §1, §2, §3, §4, §5

[5] = target: KRAS G12C (Homo sapiens (Human), UniProt P01116+P62937, G12C); assay: as above; assay type: biochemical; conditions: read-out: KRAS G12C FRET IC50
KRAS G12C, sequence (P01116-2 other isoform, or with tags, fused parts or gaps G12C): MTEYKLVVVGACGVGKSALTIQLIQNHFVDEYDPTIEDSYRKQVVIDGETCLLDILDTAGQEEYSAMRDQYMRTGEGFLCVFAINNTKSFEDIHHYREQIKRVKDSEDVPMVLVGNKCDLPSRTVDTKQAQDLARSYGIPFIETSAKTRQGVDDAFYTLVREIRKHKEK
KRAS G12C, sequence (P62937 whole entry): as the sequence (P62937 whole entry) above
Procedure: as §1, §2, §3, §4, §5

[6] = target: KRAS G13D (Homo sapiens (Human), UniProt P01116+P62937, G13D); assay: as above; assay type: biochemical; conditions: read-out: KRAS G13D FRET data IC50
KRAS G13D, sequence (P01116 other isoform, or with tags, fused parts or gaps G13D): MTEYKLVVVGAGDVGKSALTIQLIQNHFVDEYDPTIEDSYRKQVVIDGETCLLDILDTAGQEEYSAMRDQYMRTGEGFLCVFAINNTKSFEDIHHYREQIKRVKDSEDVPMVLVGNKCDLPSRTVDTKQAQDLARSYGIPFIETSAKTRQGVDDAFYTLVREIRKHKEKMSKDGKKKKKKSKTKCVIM
KRAS G13D, sequence (P62937 whole entry): as the sequence (P62937 whole entry) above
Procedure: as §1, §2, §3, §4, §5

[7] = target: KRAS G12D (Homo sapiens (Human), UniProt P01116+P62937, G12D); assay: as above; assay type: biochemical; conditions: read-out: KRAS G12D FRET IC50
KRAS G12D, sequence (P01116 other isoform, or with tags, fused parts or gaps G12D): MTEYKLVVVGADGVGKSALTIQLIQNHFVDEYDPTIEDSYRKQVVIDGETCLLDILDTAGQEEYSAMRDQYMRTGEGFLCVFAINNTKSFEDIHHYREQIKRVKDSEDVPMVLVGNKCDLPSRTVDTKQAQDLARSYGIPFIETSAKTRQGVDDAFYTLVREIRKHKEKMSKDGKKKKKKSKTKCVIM
KRAS G12D, sequence (P62937 whole entry): as the sequence (P62937 whole entry) above
Procedure: as §1, §2, §3, §4, §5

[8] = target: KRAS G12S (Homo sapiens (Human), UniProt P01116+P62937, G12S); assay: as above; assay type: biochemical; conditions: read-out: KRAS G12S FRET IC50
KRAS G12S, sequence (P01116 other isoform, or with tags, fused parts or gaps G12S): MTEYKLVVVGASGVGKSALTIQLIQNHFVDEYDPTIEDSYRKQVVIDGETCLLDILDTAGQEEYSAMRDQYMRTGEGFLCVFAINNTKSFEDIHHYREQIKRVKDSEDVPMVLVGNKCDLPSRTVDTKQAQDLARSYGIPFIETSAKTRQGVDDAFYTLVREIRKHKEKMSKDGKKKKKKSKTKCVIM
KRAS G12S, sequence (P62937 whole entry): as the sequence (P62937 whole entry) above
Procedure: as §1, §2, §3, §4, §5

[9] = tested on: Capan-1 cells (K-Ras G12V); assay: CellTiter-Glo cell viability, Capan-1; assay type: cell-based, human; conditions: K-Ras G12V, 5-day treatment, read-out: Capan-1 Cell Viability IC50
Summary of the method: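 Endpoint: CellTiter-Glo luminescence on day 5, following ~30 min at room temperature. Data as (sample/mean DMSO)×100, four-parameter logistic fit.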

[10] = tested on: K-Ras G12C (NCI-H358 cells); assay: Potency assay: pERK in NCI-H358 cells; assay type: cell-based, human; conditions: Homo sapiens; NCI-H358 cells, 4 hours; read-out: pERK EC50 (H358 KRAS G12C)
Summary of the method: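 Cells plated the day before were exposed for 4 h at 37° C, 5% CO2 to a 10-point, 3-fold DMSO dilution series (10 mM top stock), in duplicate. Phospho-ERK was read by AlphaLISA SureFire Ultra or by In-Cell Western with DRAQ5 DNA stain, and IC50 came from a 4-parameter sigmoidal fit.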

NRAS G12C, sequence (P01111 whole entry G12C): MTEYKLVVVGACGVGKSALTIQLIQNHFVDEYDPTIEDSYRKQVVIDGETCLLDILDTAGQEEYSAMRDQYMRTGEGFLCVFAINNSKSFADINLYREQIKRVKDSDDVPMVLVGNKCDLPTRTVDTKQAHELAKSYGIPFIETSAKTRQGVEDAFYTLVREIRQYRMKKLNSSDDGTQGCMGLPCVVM
NRAS G12C, sequence (P62937 whole entry): as the sequence (P62937 whole entry) above

Structure (SMILES) | IC50 [1] [µM] | IC50 [2] [µM] | IC50 [3] [µM] | IC50 [4] [µM] | IC50 [5] [µM] | IC50 [6] [µM] | IC50 [7] [µM] | IC50 [8] [µM] | EC50 [10] [µM] | IC50 [9] [µM] | IC50 ([9]; Homo sapiens, CAPAN-1, 120 h) [µM]
CCn1c(-c2cccnc2[C@H](C)OC)c2c3cc(ccc31)-c1csc(n1)C[C@H](NC(=O)[C@H](C(C)C)N(C)C(=O)N1CC(OC)C1)C(=O)N1CCC[C@H](N1)C(=O)OCC(C)(C)C2 [Compound A205] | 0.01 to 0.1 | 0.1 to 1 | 0.1 to 1 | 0.1 to 1 | 0.01 to 0.1 | 0.1 to 1 | 0.1 to 1 | 0.1 to 1 | – | 0.01 to 0.1 | –
CCn1c(-c2cccnc2[C@H](C)OC)c2c3cc(ccc31)-c1cccc(c1)C[C@H](NC(=O)[C@H](C(C)C)N(C)C(=O)[C@@H]1CCN(C3COC3)C1)C(=O)N1CCC[C@H](N1)C(=O)OCC(C)(C)C2 [Compound A206] | 1 to 10 | 1 to 10 | 1 to 10 | > 10 | 1 to 10 | 1 to 10 | > 10 | > 10 | – | – | > 10
CCn1c(-c2cccnc2[C@H](C)OC)c2c3cc(ccc31)-c1cc(O)cc(c1)C[C@H](NC(=O)[C@H](C(C)C)N(C)C(=O)[C@@H]1NC[C@@H]3C[C@@H]31)C(=O)N1CCC[C@H](N1)C(=O)OCC(C)(C)C2 [Compound A217] | 0.01 to 0.1 | 0.01 to 0.1 | 0.01 to 0.1 | 0.1 to 1 | 0.01 to 0.1 | 0.01 to 0.1 | 0.1 to 1 | 0.01 to 0.1 | – | – | 0.1 to 1
CCn1c(-c2cccnc2[C@H](C)OC)c2c3cc(ccc31)-c1cc(O)cc(c1)C[C@H](NC(=O)[C@H](C(C)C)N(C)C(=O)C1CCCC1)C(=O)N1CCC[C@H](N1)C(=O)OCC(C)(C)C2 [Compound A219] | 0.01 to 0.1 | 0.01 to 0.1 | 0.01 to 0.1 | 0.01 to 0.1 | 0.01 to 0.1 | 0.1 to 1 | 0.1 to 1 | 0.01 to 0.1 | – | – | 0.1 to 1
CCn1c(-c2cccnc2[C@H](C)OC)c2c3cc(ccc31)-c1cc(O)cc(c1)C[C@H](NC(=O)[C@H](C(C)C)N(C)C(=O)[C@H]1CNC[C@@H]1C)C(=O)N1CCC[C@H](N1)C(=O)OCC(C)(C)C2 [Compound A251] | 0.1 to 1 | 0.1 to 1 | 0.01 to 0.1 | 0.1 to 1 | 0.1 to 1 | 0.01 to 0.1 | 0.1 to 1 | 0.1 to 1 | – | – | > 10

The next lines start with results.

IC50 [1] [µM] | IC50 [2] [µM] | IC50 [3] [µM] | IC50 [4] [µM] | IC50 [5] [µM] | IC50 [6] [µM] | IC50 [7] [µM] | IC50 [8] [µM] | EC50 [10] [µM] | Structure (SMILES) | IC50 [9] [µM] | IC50 ([9]; Homo sapiens, CAPAN-1, 120 h) [µM]
1 to 10 | 1 to 10 | 1 to 10 | > 10 | 1 to 10 | 1 to 10 | 1 to 10 | 1 to 10 | – | CCn1c(-c2cccnc2[C@H](C)OC)c2c3cc(ccc31)-c1csc(n1)C[C@H](NC(=O)[C@H](C(C)C)N1CCC3(CCN(C)C3)C1=O)C(=O)N1CCC[C@H](N1)C(=O)OCC(C)(C)C2 (stereo partly drawn) [Compound A213] | – | > 10
0.01 to 0.1 | 0.1 to 1 | 0.01 to 0.1 | 0.1 to 1 | 0.01 to 0.1 | 0.01 to 0.1 | 0.1 to 1 | 0.1 to 1 | – | CCn1c(-c2cccnc2[C@H](C)OC)c2c3cc(ccc31)-c1cc(O)cc(c1)C[C@H](NC(=O)[C@H](C(C)C)N(C)C(=O)C1CNCCO1)C(=O)N1CCC[C@H](N1)C(=O)OCC(C)(C)C2 (stereo partly drawn) [Compound A229] | – | 1 to 10
0.1 to 1 | 0.1 to 1 | 0.1 to 1 | 0.1 to 1 | 0.1 to 1 | 0.1 to 1 | 1 to 10 | 0.1 to 1 | < 5 | CCn1c(-c2cnccc2COC)c2c3cc(ccc31)-c1cc(O)cc(c1)C[C@H](NC(=O)[C@H](C(C)C)N(C)C(=O)N1CCOCC1)C(=O)N1CCC[C@H](N1)C(=O)OCC(C)(C)C2 [Compound A257] | – | –
